Data as given in ChEMBL document CHEMBL3774368, “1,2,4-Triazolyl octahydropyrrolo[2,3-b]pyrroles: A new series of potent and selective dopamine D3 receptor antagonists” (Bioorg Med Chem, 2016).

How the values were obtained:
D(2) dopamine receptor = D(2) dopamine receptor (Homo sapiens, UniProt P14416); experiment: Displacement of [3H]-spiperone from human dopamine D2 receptor expressed in CHO-K1 cell membranes after 120 mins by liquid scintillation counter method
D(3) dopamine receptor = D(3) dopamine receptor (Homo sapiens, UniProt P35462); experiment: Displacement of [3H]-spiperone from human dopamine D3 receptor expressed in CHO-K1 cell membranes after 90 mins by liquid scintillation counter method
D(3) dopamine receptor, sequence (P35462 whole entry): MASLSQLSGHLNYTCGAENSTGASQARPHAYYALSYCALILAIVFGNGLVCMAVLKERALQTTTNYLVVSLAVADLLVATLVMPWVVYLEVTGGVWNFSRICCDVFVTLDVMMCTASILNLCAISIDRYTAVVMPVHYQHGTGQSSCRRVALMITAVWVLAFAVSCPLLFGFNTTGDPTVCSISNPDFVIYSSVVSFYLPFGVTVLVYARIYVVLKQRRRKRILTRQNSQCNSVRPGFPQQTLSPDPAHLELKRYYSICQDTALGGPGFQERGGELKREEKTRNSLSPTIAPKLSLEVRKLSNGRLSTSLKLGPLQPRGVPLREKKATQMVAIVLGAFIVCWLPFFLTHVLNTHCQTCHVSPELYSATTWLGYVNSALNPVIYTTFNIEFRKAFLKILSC

[1] = target: Voltage-gated inwardly rectifying potassium channel KCNH2 (Homo sapiens, UniProt Q12809); experiment: Inhibition of human ERG tail current expressed in HEK293 cells after 5 mins by patch clamp assay
Voltage-gated inwardly rectifying potassium channel KCNH2, sequence (Q12809 whole entry): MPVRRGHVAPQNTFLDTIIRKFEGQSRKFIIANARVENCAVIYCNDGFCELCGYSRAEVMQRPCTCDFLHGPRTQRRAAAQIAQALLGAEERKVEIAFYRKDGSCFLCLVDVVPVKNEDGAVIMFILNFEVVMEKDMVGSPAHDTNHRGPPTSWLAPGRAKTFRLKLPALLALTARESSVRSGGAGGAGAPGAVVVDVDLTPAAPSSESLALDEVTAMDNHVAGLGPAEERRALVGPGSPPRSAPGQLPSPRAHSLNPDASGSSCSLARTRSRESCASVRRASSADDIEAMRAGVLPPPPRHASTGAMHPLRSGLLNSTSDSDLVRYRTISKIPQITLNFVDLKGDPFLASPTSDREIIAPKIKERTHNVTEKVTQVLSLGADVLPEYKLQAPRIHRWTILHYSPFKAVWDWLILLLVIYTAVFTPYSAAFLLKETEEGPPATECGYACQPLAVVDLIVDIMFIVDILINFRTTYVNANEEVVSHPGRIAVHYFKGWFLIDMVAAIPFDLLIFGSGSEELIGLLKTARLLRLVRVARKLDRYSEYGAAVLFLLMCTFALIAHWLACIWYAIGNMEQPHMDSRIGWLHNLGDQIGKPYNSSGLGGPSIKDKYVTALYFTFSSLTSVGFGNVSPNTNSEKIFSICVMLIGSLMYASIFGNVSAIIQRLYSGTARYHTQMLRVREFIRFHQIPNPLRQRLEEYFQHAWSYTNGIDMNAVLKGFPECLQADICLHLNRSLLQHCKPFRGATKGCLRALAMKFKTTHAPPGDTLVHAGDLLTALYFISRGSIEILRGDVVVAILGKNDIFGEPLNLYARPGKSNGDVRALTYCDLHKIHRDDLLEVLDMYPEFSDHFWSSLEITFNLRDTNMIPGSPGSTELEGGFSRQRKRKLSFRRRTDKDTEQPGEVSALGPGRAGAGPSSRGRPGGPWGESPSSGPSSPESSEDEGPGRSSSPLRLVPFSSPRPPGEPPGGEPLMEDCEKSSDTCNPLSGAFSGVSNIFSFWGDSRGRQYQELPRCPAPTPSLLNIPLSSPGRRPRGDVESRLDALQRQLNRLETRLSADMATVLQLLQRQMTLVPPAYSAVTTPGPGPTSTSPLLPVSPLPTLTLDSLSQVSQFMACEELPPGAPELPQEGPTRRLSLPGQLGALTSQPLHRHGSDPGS

D(2) dopamine receptor, sequence (P14416 whole entry): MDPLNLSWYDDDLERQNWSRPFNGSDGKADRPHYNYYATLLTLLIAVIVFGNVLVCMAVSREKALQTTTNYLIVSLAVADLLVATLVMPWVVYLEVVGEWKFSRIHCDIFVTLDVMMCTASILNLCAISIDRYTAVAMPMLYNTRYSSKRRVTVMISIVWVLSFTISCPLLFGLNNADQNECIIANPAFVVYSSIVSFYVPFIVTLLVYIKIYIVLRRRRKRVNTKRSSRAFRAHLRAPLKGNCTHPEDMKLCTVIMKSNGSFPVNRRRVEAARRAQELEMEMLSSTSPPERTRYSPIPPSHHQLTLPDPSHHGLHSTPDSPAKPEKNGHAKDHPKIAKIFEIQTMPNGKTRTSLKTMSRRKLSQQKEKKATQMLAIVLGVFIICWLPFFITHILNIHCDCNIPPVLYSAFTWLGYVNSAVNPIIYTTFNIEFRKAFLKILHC

Row | Compound | Ki (D(2) dopamine receptor) [nM] | Ki (D(3) dopamine receptor) [nM] | IC50 [1] [nM]
1 | Cn1c(SCCCN2CC3CCN(c4ccc(C(F)(F)F)cc4)C3C2)nnc1-c1cc[nH]c(=O)c1 (stereo in doubt; 55a) | 2000 | 15.8 | 
2 | CC(C)Oc1ccccc1N1CCC2CN(CCCSc3nnc(-c4cnccn4)n3C)CC21 (racemic) | 251 | 10 | 
3 | Cn1c(SCCCN2CC3CCN(c4ccccc4)C3C2)nnc1C1CCOCC1 (stereo in doubt; 62b) |  | 25.1 | 
4 | Cn1c(SCCCN2CC3CCN(c4ccc(F)cc4)C3C2)nnc1-c1cc[nH]c(=O)c1 (racemic) | 631 |  | 
5 | Cn1c(SCCCN2CC3CCN(c4cccc(F)c4)C3C2)nnc1-c1cnccn1 (racemic) | 251 | 5.01 | 
6 | Cn1c(SCCCN2CC3CCN(c4ccc(C(F)(F)F)cc4)C3C2)nnc1-c1ccnnc1 (racemic) | 631 | 12.6 | 
7 | Cn1c(SCCCN2CC3CCN(c4ccc(F)cc4C(F)(F)F)C3C2)nnc1-c1cnccn1 (racemic) |  | 25.1 | 
8 | Cn1c(SCCCN2CC3CCN(c4cccc(OC(F)(F)F)c4)C3C2)nnc1-c1cnccn1 (racemic) |  | 0.316 | 
9 | Cn1c(SCCCN2CC3CCN(c4ccccc4C#N)C3C2)nnc1-c1cnccn1 (racemic) | 200 | 6.31 | 
10 | COc1ccccc1N1CCC2CN(CCCSc3nnc(-c4cnccn4)n3C)CC21 (racemic) | 316 | 15.8 | 
11 | Cn1c(SCCCN2CC3CCN(c4ccc(OC(F)(F)F)cc4)C3C2)nnc1-c1cnccn1 (racemic) | 316 | 12.6 | 
12 | Cn1c(SCCCN2CC3CCN(c4cccc(C(F)(F)F)c4)C3C2)nnc1-c1cnccn1 (racemic) | 31.6 | 0.2 | 
13 | Cn1c(SCCCN2CC3CCN(c4ccc(C(F)(F)F)cc4)C3C2)nnc1-c1ccc(=O)[nH]c1 (racemic) | 398 | 3.98 | 1000
14 | Cn1c(SCCCN2CC3CCN(c4ccc(C(F)(F)F)cc4)C3C2)nnc1-c1cccnc1 (racemic) |  | 3.16 | 
15 | Cn1c(SCCCN2CC3CCN(c4ccc(C(F)(F)F)cc4)C3C2)nnc1C1CCCC1 (stereo in doubt; 64a) |  | 0.2 | 
16 | Cc1ncoc1-c1nnc(SCCCN2CC3CCN(c4cccc(C#N)c4)C3C2)n1C (stereo in doubt; 12b) | 631 | 6.31 | 794
17 | Cc1ccc(N2CCC3CN(CCCSc4nnc(-c5cnccn5)n4C)CC32)cc1 (racemic) | 631 | 7.94 | 
18 | Cc1cccc(N2CCC3CN(CCCSc4nnc(-c5cnccn5)n4C)CC32)c1 (racemic) |  | 3.98 | 
19 | Cn1c(SCCCN2CC3CCN(c4ccc(C(F)(F)F)cc4)C3C2)nnc1C1CCCCC1 (racemic) | 6310 | 39.8 | 
20 | Cn1c(SCCCN2CC3CCN(c4c(F)cccc4F)C3C2)nnc1-c1cnccn1 (racemic) | 631 |  | 
21 | Cn1c(SCCCN2CC3CCN(c4cccc(C#N)c4)C3C2)nnc1-c1cnccn1 (racemic) | 100 | 2 | 
22 | Cn1c(SCCCN2CC3CCN(c4ccc(C(F)(F)F)cc4)C3C2)nnc1N1CCOCC1 (racemic) | 200 |  | 
23 | Cn1c(SCCCN2CC3CCN(c4ccc(F)cc4)C3C2)nnc1-c1ccn(C)c(=O)c1 (racemic) | 398 | 7.94 | 
24 | Cn1c(SCCCN2CC3CCN(c4ccccc4C(F)(F)F)C3C2)nnc1-c1cccnc1 (stereo in doubt; 52b) | 1260 |  | 

Row | Compound | Ki (D(2) dopamine receptor) [nM] | Ki (D(3) dopamine receptor) [nM] | IC50 [1] [nM]
25 | Cn1c(SCCCN2CC3CCN(c4ccc(C(F)(F)F)cc4)C3C2)nnc1-c1cc[nH]c(=O)c1 (racemic) | 631 | 7.94 | 1260
26 | Cn1c(SCCCN2CC3CCN(c4ccc(F)cc4F)C3C2)nnc1-c1cnccn1 (racemic) | 398 | 10 | 
27 | Cc1ncoc1-c1nnc(SCCCN2CC3CCN(c4cccc(C#N)c4)C3C2)n1C (racemic) | 50.1 |  | 
28 | Cn1c(SCCCN2CC3CCN(c4ccc(C(F)(F)F)cc4)C3C2)nnc1N1CCOCC1 (stereo in doubt; 61b) | 200 | 2 | 
29 | Cn1c(SCCCN2CC3CCN(c4ccc(C(F)(F)F)cc4)C3C2)nnc1C1CCCC1 (racemic) |  | 0.398 | 
30 | Cn1c(SCCCN2CC3CCN(c4c(F)cc(F)cc4F)C3C2)nnc1-c1cnccn1 (racemic) | 631 | 1 | 
31 | Cn1c(SCCCN2CC3CCN(c4ccc(F)cc4)C3C2)nnc1C1CCCCC1 (racemic) | 794 | 12.6 | 
32 | Cn1c(SCCCN2CC3CCN(c4ccccc4)C3C2)nnc1C1CCOCC1 (racemic) |  | 12.6 | 
33 | Cc1ncoc1-c1nnc(SCCCN2CC3CCN(c4ccc(Cl)cc4Cl)C3C2)n1C (racemic) | 501 | 5.01 | 1260
34 | Cn1c(SCCCN2CC3CCN(c4ccc(C(F)(F)F)cc4)C3C2)nnc1C1CCCCC1 (stereo in doubt; 65a) |  | 12.6 | 
35 | Cc1ncoc1-c1nnc(SCCCN2CC3CCN(c4cc(Cl)cc(Cl)c4)C3C2)n1C (racemic) | 10 | 0.398 | < 100
36 | Cn1c(SCCCN2CC3CCN(c4ccccc4C(F)(F)F)C3C2)nnc1-c1ccncc1 (racemic) | 251 | 5.01 | 
37 | Cn1c(SCCCN2CC3CCN(c4ccc(F)cc4F)C3C2)nnc1-c1cnccn1 (stereo in doubt; 36a) | 1000 | 10 | 
38 | Cn1c(SCCCN2CC3CCN(c4ccc(C(F)(F)F)cc4)C3C2)nnc1-c1ccc(=O)n(C)c1 (racemic) |  | 6.31 | 
39 | Cn1c(SCCCN2CC3CCN(c4ccccc4C(F)(F)F)C3C2)nnc1-c1ccccn1 (racemic) | 316 | 5.01 | 
40 | Cn1c(SCCCN2CC3CCN(c4ccc(C(F)(F)F)cc4)C3C2)nnc1N1CCOCC1 (stereo in doubt; 61a) |  | 3.16 | 
41 | Cn1c(SCCCN2CC3CCN(c4ccccc4C(F)(F)F)C3C2)nnc1-c1cccnc1 (racemic) | 794 |  | 
42 | Cn1c(SCCCN2CC3CCN(c4ccc(C#N)cc4)C3C2)nnc1-c1cnccn1 (racemic) | 6310 | 126 | 
43 | Cn1c(SCCCN2CC3CCN(c4c(F)cccc4C(F)(F)F)C3C2)nnc1-c1cnccn1 (racemic) | 398 | 3.98 | 
44 | COc1cc(N2CCC3CN(CCCSc4nnc(-c5cnccn5)n4C)CC32)ccc1F (racemic) | 501 | 3.16 | 
45 | Cc1ccccc1N1CCC2CN(CCCSc3nnc(-c4cnccn4)n3C)CC21 (racemic) |  | 126 | 
46 | Cc1ncoc1-c1nnc(SCCCN2CC3CCN(c4c(F)cccc4F)C3C2)n1C (racemic) |  | 2.51 | 
47 | CC(C)Oc1ccccc1N1CCC2CN(CCCSc3nnc(-c4cnccn4)n3C)CC21 (stereo in doubt; 35a) | 5010 | 63.1 | 
48 | Cn1c(SCCCN2CC3CCN(c4ccc(F)cc4)C3C2)nnc1-c1cnccn1 (racemic) | 200 | 2 | 

The next lines start with results.

Row | Ki (D(2) dopamine receptor) [nM] | Ki (D(3) dopamine receptor) [nM] | Compound | IC50 [1] [nM]
49 | 398 |  | Cc1ncoc1-c1nnc(SCCCN2CC3CCN(c4ccccc4)C3C2)n1C (stereo in doubt; 6a) | 1580
50 | 316 | 50.1 | Cn1c(SCCCN2CC3CCN(c4ccc(C(F)(F)F)cc4)C3C2)nnc1-c1cccnn1 (racemic) | 
51 | 251 |  | Cc1ncoc1-c1nnc(SCCCN2CC3CCN(c4ccccc4)C3C2)n1C (racemic) | 
52 |  | 12.6 | Cc1ncoc1-c1nnc(SCCCN2CC3CCCN(c4ccc(C(F)(F)F)cc4)C3C2)n1C (racemic) | 
53 | 200 |  | Cn1cc(-c2nnc(SCCCN3CC4CCN(c5ccc(C(F)(F)F)cc5)C4C3)n2C)cn1 (racemic) | 
54 |  | 31.6 | Cc1ncoc1-c1nnc(SCCCN2CC3OCCN(c4ccc(C(F)(F)F)cc4)C3C2)n1C (racemic) | 
55 | 631 |  | Cc1ncoc1-c1nnc(SCCCN2CC3CCN(c4ccc(OC(F)(F)F)cc4)C3C2)n1C (racemic) | 
56 | 200 |  | Cc1ncoc1-c1nnc(SCCCN2CC3CCN(c4ccc(F)cc4)C3C2)n1C (stereo in doubt; 9b) | 
57 |  | 3.16 | Cc1ncoc1-c1nnc(SCCCN2CC3CCN(c4ccc(C(F)(F)F)cc4)C3C2)n1C (stereo in doubt; 7b) | 
58 | 1260 | 50.1 | Cn1c(SCCCN2CC3CCN(c4ccc(C(F)(F)F)cc4)C3C2)nnc1-c1cncnc1 (racemic) | 
59 | 100 | 2 | Cc1ncoc1-c1nnc(SCCCN2CC3CCN(c4ccc(C(F)(F)F)cc4F)C3C2)n1C (racemic) | 15800
60 |  | 39.8 | Cc1ncoc1-c1nnc(SCCCN2CC3CN(c4ccc(C(F)(F)F)cc4)C3C2)n1C (racemic) | 631
61 | 158 | 2.51 | Cc1cc(-c2nnc(SCCCN3CC4CCN(c5ccc(C(F)(F)F)cc5)C4C3)n2C)on1 (racemic) | 
62 | 501 |  | Cn1c(SCCCN2CC3CCN(c4ccc(C(F)(F)F)cc4)C3C2)nnc1-c1cnccn1 (stereo in doubt; 17a) | 
63 |  | 2 | Cc1ncoc1-c1nnc(SCCCN2CC3CCN(c4ccc(C(F)(F)F)cc4)C3C2)n1C (stereo in doubt; 7a) | 
64 | 1580 | 5.01 | Cc1ncoc1-c1nnc(SCCCN2CC3CCN(c4ccc(C(F)(F)F)cc4F)C3C2)n1C (stereo in doubt; 8a) | 200
65 |  | 1.58 | Cc1ncoc1-c1nnc(SCCCN2CC3CCN(c4ccc(C(F)(F)F)cc4)C3C2)n1C (racemic) | 
66 | 20 | 1 | Cc1ncoc1-c1nnc(SCCCN2CC3CCN(c4ccccc4OC(F)(F)F)C3C2)n1C (racemic) | 
67 | 200 |  | Cc1ncoc1-c1nnc(SCCCN2CC3CCN(c4ccc(F)cc4)C3C2)n1C (racemic) | 
68 | 398 |  | Cn1c(SCCCN2CC3CCN(c4ccc(C(F)(F)F)cc4)C3C2)nnc1-c1ccccn1 (racemic) | 
69 | 398 | 2 | Cn1c(SCCCN2CC3CCN(c4ccc(C(F)(F)F)cc4)C3C2)nnc1-c1ccncc1 (racemic) | 
